The values that follow come from patent US7292944B2, “Establishment of biological cut-off values for predicting resistance to therapy” (priority 2000, dated 2007).

The test relates to HIV. Description: Antivirogram phenotypic drug susceptibility of untreated patient samples relative to laboratory wild type standard virus. Type of test: cell-based. The conditions noted are these: for effect of the change in cut-off value on the decision concerning resistance of the samples: new versus old cut-off value (FIG. 4, FIG. 5). The text has this: In one embodiment, the biological cut-off values may be used in concert with direct phenotype assays, for example, Antivirogram™ (Virco, Inc.; WO 97/27480, U.S. Pat. No. 6,221,578 incorporated herein by reference). This assay is a phenotypic resistance assay that measures, in controlled laboratory conditions, the level of resistance of the HIV derived from an individual patient to each of the anti-HIV therapies currently available. The resistant ‘behavior’ of the virus may be the combined result of the effects of many different mutations and the complex interactions between them, including genetic changes that have not even been identified yet. In other words, it is a direct measure of resistance.
The test provides a quantitative measure of viral resistance to all the available drugs. This is expressed in terms of the IC50. This is then compared to the IC50 for fully sensitive, non-mutated ‘wild-type’ virus. The resistance of the sampled virus to each therapy is then expressed in terms of a fold-change in IC50 compared to wild type. The report enables physicians to identify the therapy(s) that are no longer active and helps in the selection of the optimal combination of drugs for the individual patient.
Drug susceptibility of approximately 1000 geographically diverse untreated patient samples was determined for all currently approved antiretrovirals using the Antivirogram™ assay. […] The fold change in sensitivity of the samples to a drug is also termed the fold resistance of the samples to the drug. The 2×SD value for each drug was used as the cut-off between sensitive (within normal susceptibile range) and resistant (above normal susceptible range). […] FIG. 1 represents an example of such an analysis for a single antiviral drug. These varied between 3-4.5 fold for the nucleosides, 6-10 fold for the NNRTIs and 2.5-4 fold for the PIs.

With `CC(C)Nc1cccnc1N1CCN(C(=O)c2cc3cc(NS(C)(=O)=O)ccc3[nH]2)CC1` [delavirdine], the “effect of the change in cut-off value on the decision concerning resistance of the samples” value is “did not actually affect the decision of many samples”. Also, under “approximately 1000 untreated patient samples, new cut-off between sensitive and resistant, old cut-off was 4 fold”, the “biological cut-off value (2×SD of fold change in sensitivity / fold resistance)” value stood at 10 fold.

Turning to `Cc1cn([C@H]2C=C[C@@H](CO)O2)c(=O)[nH]c1=O` [d4T], the “effect of the change in cut-off value on the decision concerning resistance of the samples” value is “doubling of the number of resistant sample”.
